Results published in PubChem BioAssay (NCI).
Values joined by “and” are separate entries in the source; they are usually repeats but may differ in a detail not shown here. Identical values can stand only once.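 Cells were grown in 96-well plates and exposed to each compound for 48 hours at five concentrations; endpoints were interpolated linearly between bracketing concentrations, or set to the highest concentration if not reached. GI50: concentration for 50% inhibition of growth. At the TGI there is no net growth.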 Where a SMILES comes first, the peptide text is derived from it. [ ]: non-standard residue; d: D form. The star is where a group is joined. Bn2Val = CC(C)[C@@H](C(=O)*)N(Cc1ccccc1)Cc1ccccc1; NMeV = CN[C@H](C(=O)O)C(C)C; X29 = COc1ccc(CN*)c(OC)c1; dNMeA = CN[C@H](C)C(=O)O

What was measured:
Experiment in all cases: growth of human tumour cells (NCI), 48 h
M14 melanoma = tested on: M14 melanoma
MOLT-4 leukemia = tested on: MOLT-4 leukemia
OVCAR-3 ovarian = tested on: OVCAR-3 ovarian
OVCAR-5 ovarian = tested on: OVCAR-5 ovarian
SR leukemia = tested on: SR leukemia
HOP-62 NSCLC = tested on: HOP-62 NSCLC
NCI-H522 lung = tested on: NCI-H522 lung
NCI-H226 lung = tested on: NCI-H226 lung
ACHN renal = tested on: ACHN renal
NCI/ADR-RES ovarian = tested on: NCI/ADR-RES ovarian

Structure (SMILES)	TGI (M14 melanoma) [µM]	TGI (MOLT-4 leukemia) [µM]	TGI (OVCAR-3 ovarian) [µM]	TGI (OVCAR-5 ovarian) [µM]	TGI (SR leukemia) [µM]	TGI (HOP-62 NSCLC) [µM]	TGI (NCI-H522 lung) [µM]	TGI (NCI-H226 lung) [µM]	TGI (ACHN renal) [µM]	TGI (NCI/ADR-RES ovarian) [µM]	GI50 (MOLT-4 leukemia)	GI50 (NCI-H226 lung)
CC1(C)CC2(C)CC1CC2(O)c1ccccc1 (stereo unspecified)	> 100	> 100	> 100	> 100	> 100	> 100	> 100	> 100	> 100			
CCC(COC(=O)CC[C@@H](NC(=O)C(C)NC(=O)C(C)OC1C(O)C(CO)OC(OCc2ccccc2)C1NC(C)=O)C(N)=O)NC1c2ccccc2Nc2cccc([N+](=O)[O-])c21 (stereo partly specified)	> 100	> 100	> 100	> 100	> 100	> 100	> 100	> 100	> 100			
C#CCNC(=O)NCCCCC(NC(=O)OCc1ccccc1)C(=O)OCc1ccccc1 (stereo unspecified)	> 100	51.9	> 100	> 100	> 100	> 43	54	> 100	> 31.6			
C=C1[C@@](C)([C@@H]2CCCS2)[C@H]2C(C)=C[C@]1(C)n1c(=O)n(-c3ccccc3)c(=O)n12	> 100	> 100	> 100	> 100		> 100	> 100	> 100	> 100	> 100		
CCCc1c(C(=O)OCC)[nH]c(-c2ccc(-c3[nH]c(C(=O)OCC)c(CCC)c3C(=O)OCC)s2)c1C(=O)OCC	> 100	> 100	> 100	> 100	> 100		> 100	> 100	> 100			
CCOC(=O)C(C)Sc1nnc(COc2ccccc2OC)n1-c1ccccc1 (stereo unspecified)	> 100		> 100	> 100		> 100	> 100	> 100	> 100			
[O-][n+]1c(CN2CCCCC2)nc2cccc3c2c1-c1ccccc1-3	31.3	> 100	46.5	50.5	> 100	48.6		39.8	70.5	84.6		
CCOC(=O)c1c(C)nc2c(c1-c1cn(-c3ccccc3)nc1-c1ccccc1)C(=O)c1ccccc1-2	> 100	> 100	> 100	> 100		> 100	> 100	> 100		> 100		
Cc1ccc(-c2cc(O)c3nc4ccccc4n3c2)cc1	> 100	> 100	> 100		> 100	> 100	> 100	> 100		> 100		
CCOC(=O)c1cc2c(OCc3ccccc3)c(OC)cc3c2c(n1)N(c1ccc(OC)cc1)C(C)C3 (stereo unspecified)	> 50	> 50	> 50	> 50	> 50	> 50	> 50		> 50			
COc1ccc(CNC(=O)[C@@H]2CCCN2C(=O)[C@@H](C)N(C)C(=O)[C@H](C(C)C)N(C)C(=O)[C@@H](NC(=O)[C@H](C(C)C)N(Cc2ccccc2)Cc2ccccc2)C(C)C)c(OC)c1 (Bn2Val-V[NMeV][dNMeA]P-X29)	10.5		14.7	3.13		21.1	24.2	22.1	13.9	12.3		
O=C1CC(C(CC(=O)c2ccccc2)c2ccccc2)C(=O)c2ccccc2N1 (stereo unspecified)	> 100	61.2	> 100	> 100	> 100	> 100		77.8	> 100	75.5		
Cc1c2c(cc3c1C(=O)C(=O)C1=C3OC[C@@H]1C)C(C)(C)CCC2	26.9	32	34.9	40.2	50.2	36.4			38.3			
O=C1CC(C(OCc2ccccc2)C(OCc2ccccc2)C(COCc2ccccc2)OCc2ccccc2)CC(=O)N1 (stereo unspecified)	> 100	> 100		> 100	> 100			> 100	> 100	> 100	> 100 µM and 37.7 µM	
O=C(C#Cc1ccccc1)N1c2ccccc2CC1c1c[nH]c2ccccc12 (stereo unspecified)	28.8	46.6	32.1	64.4	45.3	26.9	24.1	25.8	66			
COC(=O)C(=O)C(C(=O)C(=O)Nc1cccc([N+](=O)[O-])c1)c1nc2ccc(Cl)cc2[nH]c1=O (stereo unspecified)	> 100	> 100	> 100	> 100		> 100	> 100	> 100	> 100	> 100		
CCN(CC)CCCNC(=O)c1cc2cc(NC(=O)c3cc4cc([N+](=O)[O-])ccc4[nH]3)ccc2[nH]1	> 100		75.8	> 100	> 100	93.4		> 100	> 100	> 100		
COc1ccc2nc3c(c(NCCCN(C)C)c2c1)CCCC3	26.1	14.2	51.4	35.6	5.77	30.9	31.3	30.7	55.3			
O=C1Nc2cc([N+](=O)[O-])c(Br)cc2C1=O	30.1	43	32.1		37.4	75.1	30.3	76.4	35.3			
Cc1ccc(-c2nnc(CCCCCCCCc3nnc(-c4ccc(C)cc4O)n3N)n2N)c(O)c1	> 100	> 100	> 100	> 100	> 100		> 100		> 100	> 100		
CC(=O)OC12c3ccccc3C(c3ccccc31)C1C(=O)N(c3ccccn3)C(=O)C12 (stereo unspecified)	> 100	> 100	> 100	> 100		> 100		> 100		> 100		
Cc1nc2n(c1/C=C1/C(=O)Nc3ccccc31)CCS2	> 100	> 100	> 100	> 100		> 100	> 100		> 100	> 100		
CC1(C)C2CCC3(OCCO3)C1C(O)C2 (stereo unspecified)	> 100	> 100	> 100	> 100		> 100	> 100	> 100	> 100			
Cc1cn(C2CC(CCCO)C(CO)O2)c(=O)[nH]c1=O (stereo unspecified)	> 100	> 100	> 100	> 100	> 100	> 100	> 100	> 100	> 100		> 100 µM	> 100 µM and 18.4 µM
